In publication PMC10534581 (Pharmaceutics, 2023):

How the values were obtained:
[1] = Steady-state trough serum concentration (TDM, HPLC with UV detection); format: in vivo, human; conditions: for Est. of Dose on square-root serum concentration, multiple linear regression / Est. of Body weight on square-root serum concentration, multiple linear regression: Model 1, last datapoint, sex, smoking; for Est. of Dose on square-root serum concentration, multiple linear regression: covariates age, body weight; for Est. of Body weight on square-root serum concentration, multiple linear regression: covariates dose, age; for Est. of Body weight on square-root serum concentration, linear mixed effect model / Est. of Dose on square-root serum concentration, linear mixed effect model: Model 2, all datapoints, multiple predictors incl. time; for β of daily dose on square-root serum concentration, linear mixed-effect model: all datapoints, dose as only fixed predictor; for steady-state serum concentration, range / mean steady-state serum concentration, mean (SD): children and adolescents n = 138, last datapoint; for steady-state serum concentration, range: FLX 10–40 mg/day; for mean steady-state serum concentration, mean (SD): FLX 10–40 mg/day (mean 19.93 mg); for β of daily dose (mg) on square-root serum concentration, simple linear regression: last datapoints
Description: The study spanned three different routine healthcare settings, including inpatient, outpatient, and day-treatment units. […] All dosing steps were recorded along with corresponding dates in the medication protocol. […] Depending on the clinical course, additional visit times were possible.
TDM analysis was conducted according to the guidelines of the Working Group on Neuropsychopharmacology and Pharmacopsychiatry (AGNP) consensus. Blood samples were collected from cubital veins into 7.5-mL monovettes without any additives or anticoagulants at a steady-state trough level. The samples were immediately analyzed (in the case of samples from Wuerzburg, Germany) or analyzed after being received by the TDM laboratory in Wuerzburg, Germany, shipped by regular mail. […] Each analytical series included internal quality control samples, and external control samples were analyzed quarterly. The laboratory responsible for the analysis is certified by a quality control program (https://www.instand-ev.de, accessed on 2 July 2023; https://www.ukw.de/psychiatrie/zuweisende-kolleginnen-und-kollegen/tdm-labor/zertifikate/, accessed on 2 July 2023). Analytical grade chemicals and solvents were procured from Sigma-Aldrich Chemie GmbH (Taufkirchen, Germany).
All statistical analyses were performed using R (R Foundation for Statistical Computing) version 4.1.1. The alpha level for all analyses was set to 0.05. To maximize the comparability of the conclusions from the dataset generated in this study, the main analyses were performed with both the last valid timepoint, as in previous relevant studies, and with all the valid timepoints, as detailed in the next paragraph. […] The model assumptions were verified by means of the semi-automated diagnostic functions in the ‘gvlma’ (Global Validation of Linear Models Assumptions) R package, including evaluation of global statistics, skewness, kurtosis, link function, and heteroscedasticity parameters and inspection of the related plots. […] In addition to the simple linear regressions, multiple linear regressions were performed with four additional hypothesized predictors: age (years), sex (male/female), body weight (kg), and smoking status (yes/no). The variance inflation factor (VIF) was evaluated as a measure of multicollinearity. Both regressions were compared based upon model fit. Second, proportional odds models using the clm (cumulative link models) function in the ‘ordinal’ R package were fitted to examine the serum concentrations as predictors of clinical effects (measured by CGI-I) and adverse effects (measured by PAERS—maximal severity). […] The analyses were repeated with an extended set of hypothesized predictors. For CGI-I, these were age, sex, psychotropic co-medication (i.e., antipsychotic and antidepressant drug), and diagnostic comorbidity (i.e., a single diagnosis versus multiple diagnoses). For PAERS, the predictors were age, sex, and psychotropic co-medication. The proportional odds assumptions in these statistics were verified with likelihood ratio tests using the nominal_test and scale_test functions, while model convergence was tested with the convergence function.
The model with multiple predictors included the variables, as in the single timepoint analyses, as well as the data collection time (i.e., days from the baseline timepoint).
To determine a possible concentration threshold of efficacy, receiver operating curve (ROC) analyses were performed based on a binary logistic regression, and the optimal cutoff was calculated by finding an optimal trade-off between sensitivity and specificity.

[2] = system: children and adolescents; assay: Treatment response on Clinical Global Impression-Improvement (CGI-I); format: in vivo, human
Description: On the day of blood collection, treatment responses were measured using the Clinical Global Impression (CGI) Scale (Improvement, CGI-I), which clinicians were instructed to rate solely based on the effects of the drug. […] This instrument was specifically designed to quantify the severity of 56 signs of adverse events occurring in pediatric patients under treatment with a psychotropic drug. The 56 items were rated on a Likert scale with 'none', 'slight', 'moderate', 'severe', and 'extremely severe' responses. The maximal severity on any of the items was considered in this study. […] Additionally, indications for the TDM measurement, detailed information on concomitant medications, nicotine use, weight, and height were also recorded. […] All statistical analyses were performed using R (R Foundation for Statistical Computing) version 4.1.1. The alpha level for all analyses was set to 0.05. To maximize the comparability of the conclusions from the dataset generated in this study, the main analyses were performed with both the last valid timepoint, as in previous relevant studies, and with all the valid timepoints, as detailed in the next paragraph. […] In addition to the simple linear regressions, multiple linear regressions were performed with four additional hypothesized predictors: age (years), sex (male/female), body weight (kg), and smoking status (yes/no). The variance inflation factor (VIF) was evaluated as a measure of multicollinearity. Both regressions were compared based upon model fit. Second, proportional odds models using the clm (cumulative link models) function in the 'ordinal' R package were fitted to examine the serum concentrations as predictors of clinical effects (measured by CGI-I) and adverse effects (measured by PAERS-maximal severity). […] The analyses were repeated with an extended set of hypothesized predictors. For CGI-I, these were age, sex, psychotropic co-medication (i.e., antipsychotic and antidepressant drug), and diagnostic comorbidity (i.e., a single diagnosis versus multiple diagnoses). For PAERS, the predictors were age, sex, and psychotropic co-medication. The proportional odds assumptions in these statistics were verified with likelihood ratio tests using the nominal_test and scale_test functions, while model convergence was tested with the convergence function. […] The clmm (cumulative link mixed models) function from the 'ordinal' package was used to test the impact of metabolite level on clinical and adverse effects with CGI-I and […] […] The model with multiple predictors included the variables, as in the single timepoint analyses, as well as the data collection time (i.e., days from the baseline timepoint). To determine a possible concentration threshold of efficacy, receiver operating curve (ROC) analyses were performed based on a binary logistic regression, and the optimal cutoff was calculated by finding an optimal trade-off between sensitivity and specificity. […] The last valid datapoints were included in these analyses as deemed most appropriate. Transdiagnostic responders and responders with depression ([…].X and […].X) were considered separately.

[3] = system: children and adolescents; assay: Adverse effects on Pediatric Adverse Event Rating Scale (PAERS), maximal severity; format: in vivo, human; conditions: n = 134 (4 missing); for patients with PAERS max. severity 'none' (no adverse effects): FLX 10–40 mg/day
Description: On the day of blood collection, treatment responses were measured using the Clinical Global Impression (CGI) Scale (Improvement, CGI-I), which clinicians were instructed to rate solely based on the effects of the drug. […] This instrument was specifically designed to quantify the severity of 56 signs of adverse events occurring in pediatric patients under treatment with a psychotropic drug. The 56 items were rated on a Likert scale with 'none', 'slight', 'moderate', 'severe', and 'extremely severe' responses. The maximal severity on any of the items was considered in this study. […] Additionally, indications for the TDM measurement, detailed information on concomitant medications, nicotine use, weight, and height were also recorded. […] All statistical analyses were performed using R (R Foundation for Statistical Computing) version 4.1.1. The alpha level for all analyses was set to 0.05. To maximize the comparability of the conclusions from the dataset generated in this study, the main analyses were performed with both the last valid timepoint, as in previous relevant studies, and with all the valid timepoints, as detailed in the next paragraph. […] As not all the assumptions were met by the original data, a square-root transformation was applied to the outcome variables. In addition to the simple linear regressions, multiple linear regressions were performed with four additional hypothesized predictors: age (years), sex (male/female), body weight (kg), and smoking status (yes/no). The variance inflation factor (VIF) was evaluated as a measure of multicollinearity. Both regressions were compared based upon model fit. Second, proportional odds models using the clm (cumulative link models) function in the 'ordinal' R package were fitted to examine the serum concentrations as predictors of clinical effects (measured by CGI-I) and adverse effects (measured by PAERS-maximal severity). As there was only a single 'very severe' PAERS response, 'very severe' and 'severe' responses were pooled together. The analyses were repeated with an extended set of hypothesized predictors. For CGI-I, these were age, sex, psychotropic co-medication (i.e., antipsychotic and antidepressant drug), and diagnostic comorbidity (i.e., a single diagnosis versus multiple diagnoses). For PAERS, the predictors were age, sex, and psychotropic co-medication. The proportional odds assumptions in these statistics were verified with likelihood ratio tests using the nominal_test and scale_test functions, while model convergence was tested with the convergence function. […] The clmm (cumulative link mixed models) function from the 'ordinal' package was used to test the impact of metabolite level on clinical and adverse effects with CGI-I and […] […]

[4] = cited from earlier work
[5] = system: CYP2D6; conditions: cited from earlier work
[6] = postmortem studies and case reports; cited from earlier work
[7] = system: patients; set-up: method as in PMID 19723786, PMID 19934760; conditions: cited from earlier work
[8] = Responders Transdiagnostic n = 64
[9] = Responders with Depression n = 44

SMILES	Est. of Dose on square-root serum concentration, multiple linear regression [1]	Est. of Body weight on square-root serum concentration, multiple linear regression [1]	Est. of Body weight on square-root serum concentration, linear mixed effect model [1]	Est. of Dose on square-root serum concentration, linear mixed effect model [1]	serum concentration of responders, M+1SD (mean plus 1 standard deviation) [1, 8] [ng/mL]	serum concentration of responders, M-1SD (mean minus 1 standard deviation) [1, 8] [ng/mL]	serum concentration of responders, Q1 (first interquartile) [1, 8] [ng/mL]	serum concentration of responders, Q3 (third interquartile) [1, 8] [ng/mL]	serum concentration of responders, M+1SD (mean plus 1 standard deviation) [1, 9] [ng/mL]	serum concentration of responders, M-1SD (mean minus 1 standard deviation) [1, 9] [ng/mL]	serum concentration of responders, Q1 (first interquartile) [1, 9] [ng/mL]	serum concentration of responders, Q3 (third interquartile) [1, 9] [ng/mL]	β of daily dose on square-root serum concentration, linear mixed-effect model [1]	steady-state serum concentration, range [1] [ng/mL]	mean steady-state serum concentration, mean (SD) [1] [ng/mL]	β of daily dose (mg) on square-root serum concentration, simple linear regression [1]	half-life [4] [days]	binding affinity to CYP2D6 [5]	other results
CNCCC(Oc1ccc(C(F)(F)F)cc1)c1ccccc1 (centres unmarked) [FLX, Fluoxetine]	0.24	−0.07	−0.07	0.34	191.29	57.97	73	155	181.19	62.51	69.5	156.25	0.31	17 to 396	123.66 ± 65.17	0.18	4 to 6	high binding affinity	patients with CGI-I 'minimally improved' ([2]; n = 138, FLX 10–40 mg/day): 60 (43.5%); patients with CGI-I 'minimally worse' ([2]; n = 138, FLX 10–40 mg/day): 3 (2.2%); patients with CGI-I 'much worse' ([2]; n = 138, FLX 10–40 mg/day): 2 (1.4%); patients with CGI-I 'no change' ([2]; n = 138, FLX 10–40 mg/day): 8 (5.8%); patients with CGI-I 'very much worse' ([2]; n = 138, FLX 10–40 mg/day): 0 (0%); patients with CGI-I 'minimally improved' ([2]; n = 138, FLX 10–40 mg/day, listed as fluoxetine): 43.5%; patients with marked improvement ([2]; n = 138, much improved plus very much improved): 45.6%; patients with PAERS max. severity 'extremely severe' [3]: 1 (0.7%); patients with PAERS max. severity 'severe' [3]: 2 (1.5%); patients with PAERS max. severity 'none' (no adverse effects) [3]: 87 (64.9%); patients with PAERS max. severity 'none' (no adverse effects) ([3]; listed as fluoxetine): 64.9%; absorption after oral administration [4]: almost completely absorbed; bioavailability ([4]; oral, reduced by hepatic first-pass metabolism): less than 90%; inhibition of CYP2D6 [5]: potent inhibitor; serum levels in fatal overdoses [6]: 1300 to 7000 ng/mL; patients who do not respond to pharmacologic monotherapy [7]: 40–60%
NCCC(Oc1ccc(C(F)(F)F)cc1)c1ccccc1 (centres unmarked) [NORFLX, Norfluoxetine]	0.21	−0.05	−0.05	0.26	218.24	85.28	102.5	186	223.57	78.88	98.75	184.25	0.25	21 to 339	144.74 ± 65.93	0.19	4 to 15	high binding affinity	relationship between serum level and therapeutic effect (CGI-I) ([2]; ordinal regressions): no significant relationship
